Experimental data as given in patent publication US20230248723A1, “PYRROLO[2,3-B]PYRAZINE COMPOUNDS AS CCCDNA INHIBITORS FOR THE TREATMENT OF HEPATITIS B VIRUS (HBV) INFECTION” (Hoffmann-La Roche Inc., priority 2017, published 2023).
Like-named read-outs stand apart in the source and are kept apart here.

How the values were obtained:
Format in all cases: cell-based
HBsAg [1] = assay: HBsAg, multiplex assay, HBV-infected PHH; conditions: Hepatitis B virus
Procedure: (§1) Fresh primary human hepatocytes (PXB-PHH) harvested from humanized mice (uPA/SCID mice)—herein called PHH—were obtained from PhoenixBio Co., Ltd (Japan). Cells were seeded on a collagen I-coated plate at the following cell density: 35,000 cells/well (384-well), 70,000 cells/well (96-well), or, 400,000 cells/well (24-well) in modified hepatocyte clonal growth medium (dHCGM). dHCGM is a DMEM medium containing 100 U/ml Penicillin, 100 μg/ml Streptomycin, 20 mM Hopes, 44 mM NaHCO3, 15 μg/ml L-proline, 0.25 μg/ml insulin, 50 nM Dexamethazone, 5 ng/ml EGF, 0.1 mM Asc-2P, 2% DMSO and 10% FBS (Ishida et al., 2015). Cells were cultured at 37° C. incubator in a humidified atmosphere with 5% CO2. Culture medium was replaced 24 h post-plating and every 2 days until harvest.
(§2) Following 4 day of maturation with 1 μM MB-1, HLC were incubated with HBV (purified from CHB individuals) at multiplicity of infection (MOI) 10-40 without PEG for 24 hr; virus inoculum was removed the following day. […] Compound treatment in HLC and PHH was started at day 3 post infection. Compound (in powder) was dissolved in DMSO; the final concentration of DMSO added to cells is 1%. Fresh compound was replenished every 2 day until cells were harvested at day 10 (PHH), or day 14 (HLC). Compound effect on HBV and cellular toxicity was measured by multiplex assay (HBsAg, HBeAg, albumin), branched DNA (pgRNA), or digital PCR (cccDNA) and depicted as % of inhibition compared to DMSO control. Graphs were prepared using Spotfire software.
(§3) A custom, Luminex-based multiplex assay that simultaneously measured HBeAg, albumin, and HBsAg was developed by Radix BioSolutions (Georgetown, Tex.). This is a sandwich immunoassay; each capture antibody was coupled with xMAP™ Luminex magnetic beads. The dynamic ranges of analyte detection are as follows: HBeAg (1-316 ng/ml), albumin (3.1-10,000 ng/ml), and HBsAg (0.1-100 ng/ml) with coefficient variant (CV) […]. Samples were read on FlexMAP 3D (Luminex) and analyzed by Genedata software.

HBeAg = assay: HBeAg, multiplex assay, HBV-infected PHH; conditions: Hepatitis B virus
Procedure: as §1, §2, §3

[2] = test system: albumin (secreted, cellular toxicity marker); assay: Albumin (in vitro cellular tox marker), multiplex assay, PHH; conditions: human
Procedure: as §1, §2, §3

HBsAg [3] = assay: HBsAg, HBV-infected HepaRG; conditions: Hepatitis B virus

SMILES: O=C(NC(CO)CO)c1c[nH]c2ncc(C3CC3)nc12 [compound 7]
- IC50 (HBsAg [1]; 240 h, read-out: HBsAg IC50 (μM) Median, PHH, patient-derived HBV GT A, MOI 40, day 10 pi): 0.33 µM
- IC50 (HBsAg [1]; 240 h, read-out: HBsAg IC50 (μM) Median, PHH, patient-derived HBV GT B, MOI 40, day 10 pi): 0.34 µM
- IC50 (HBsAg [1]; 240 h, read-out: HBsAg IC50 (μM) Median, PHH, patient-derived HBV GT C, MOI 40, day 10 pi): 0.3 µM
- IC50 (HBsAg [1]; 240 h, read-out: HBsAg IC50 (μM) Median, PHH, patient-derived HBV GT D, MOI 40, day 10 pi (Table 5)): 0.3 µM
- IC50 (HBsAg [1]; read-out: HBsAg IC50 (μM) Median, PHH, HepG2.2.15-derived HBV GT D, MOI 40): 9.98 µM
- IC50 (HBsAg [1]; read-out: HBsAg IC50 (μM) Median, PHH, HepG2.2.15-derived HBV GT D, MOI 125): 8.98 µM
- IC50 (HBsAg [1]; read-out: HBsAg IC50 (μM) Median, PHH, patient-derived HBV (GT D)): 0.45 µM
- IC50 (HBsAg [1]; read-out: HBsAg IC50 (μM) Median, PHH, patient-derived HBV GT D, MOI 40 (Table 6)): 0.44 µM
- IC50 (HBsAg [1]; read-out: HBsAg IC50 (μM) Median, PHH, patient-derived HBV GT D, MOI 125): 0.8 µM
- IC50 (HBsAg [1]; read-out: HBsAg IC50s, PHH, patient-derived HBV GT A-D, range stated in text for HBsAg & HBeAg): 0.24 to 0.45 µM
- IC50 (HBeAg; 240 h, read-out: HBeAg IC50 (μM) Median, PHH, patient-derived HBV GT A, MOI 40, day 10 pi): 0.4 µM
- IC50 (HBeAg; 240 h, read-out: HBeAg IC50 (μM) Median, PHH, patient-derived HBV GT B, MOI 40, day 10 pi): 0.31 µM
- IC50 (HBeAg; 240 h, read-out: HBeAg IC50 (μM) Median, PHH, patient-derived HBV GT C, MOI 40, day 10 pi): 0.35 µM
- IC50 (HBeAg; 240 h, read-out: HBeAg IC50 (μM) Median, PHH, patient-derived HBV GT D, MOI 40, day 10 pi (Table 5)): 0.31 µM
- IC50 (HBeAg; read-out: HBeAg IC50 (μM) Median, PHH, HepG2.2.15-derived HBV GT D, MOI 40): 15.3 µM
- IC50 (HBeAg; read-out: HBeAg IC50 (μM) Median, PHH, HepG2.2.15-derived HBV GT D, MOI 125): 15.9 µM
- IC50 (HBeAg; read-out: HBeAg IC50 (μM) Median, PHH, patient-derived HBV (GT D)): 0.39 µM
- IC50 (HBeAg; read-out: HBeAg IC50 (μM) Median, PHH, patient-derived HBV GT D, MOI 40 (Table 6)): 0.32 µM
- IC50 (HBeAg; read-out: HBeAg IC50 (μM) Median, PHH, patient-derived HBV GT D, MOI 125): 0.57 µM
- IC50 (HBeAg; read-out: HBeAg IC50s, PHH, patient-derived HBV GT A-D, range stated in text for HBsAg & HBeAg): 0.24 to 0.45 µM
- IC50 at 7 days ([2]; HepG2.2.15-derived HBV GT D, MOI 40, read-out: In vitro tox albumin IC50 (μM) Median): 21.1 µM
- IC50 at 7 days ([2]; HepG2.2.15-derived HBV GT D, MOI 125, read-out: In vitro tox albumin IC50 (μM) Median): 20.2 µM
- IC50 at 7 days ([2]; primary human hepatocytes (PXB-PHH) infected with HBV, patient-derived HBV (GT D), read-out: In vitro tox albumin IC50 (μM) Median): 20.9 µM
- IC50 at 7 days ([2]; primary human hepatocytes (PXB-PHH) infected with HBV, patient-derived HBV GT A, MOI 40, day 10 pi, read-out: In vitro tox albumin IC50 (μM) Median): 20.3 µM
- IC50 at 7 days ([2]; primary human hepatocytes (PXB-PHH) infected with HBV, patient-derived HBV GT B, MOI 40, day 10 pi, read-out: In vitro tox albumin IC50 (μM) Median): 19.2 µM
- IC50 at 7 days ([2]; primary human hepatocytes (PXB-PHH) infected with HBV, patient-derived HBV GT C, MOI 40, day 10 pi, read-out: In vitro tox albumin IC50 (μM) Median): 23.2 µM
- IC50 at 7 days ([2]; primary human hepatocytes (PXB-PHH) infected with HBV, patient-derived HBV GT D, MOI 40 (Table 6), read-out: In vitro tox albumin IC50 (μM) Median): 23.7 µM
- IC50 at 7 days ([2]; primary human hepatocytes (PXB-PHH) infected with HBV, patient-derived HBV GT D, MOI 40, day 10 pi (Table 5), read-out: In vitro tox albumin IC50 (μM) Median): 23.7 µM
- IC50 at 7 days ([2]; primary human hepatocytes (PXB-PHH) infected with HBV, patient-derived HBV GT D, MOI 125, read-out: In vitro tox albumin IC50 (μM) Median): 20.5 µM
- IC50 (HBsAg [3]; read-out: HBsAg IC50 (μM) Median, HepaRG, HepG2.2.15-derived HBV GT D, MOI 40): 9.01 µM
- IC50 (HBsAg [3]; read-out: HBsAg IC50 (μM) Median, HepaRG, HepG2.2.15-derived HBV GT D, MOI 125): 10.3 µM
- IC50 (HBsAg [3]; read-out: HBsAg IC50 (μM) Median, HepaRG, patient-derived HBV GT D, MOI 40): 0.67 µM
- IC50 (HBsAg [3]; read-out: HBsAg IC50 (μM) Median, HepaRG, patient-derived HBV GT D, MOI 125): 0.88 µM
